# Laboratory results: patent publication US11890350B2, “Steroid acid-peptide based cytotoxic compounds” (DEFENCE THERAPEUTICS INC., priority 2021, dated 2024)
# Peptide text beside a SMILES is read from it. * marks the point of attachment. Cholyl = C[C@H](CCC(=O)*)[C@H]1CC[C@H]2[C@@H]3[C@H](O)C[C@@H]4C[C@H](O)CC[C@]4(C)[C@H]3C[C@H](O)[C@]12C
# Legend:
# [1] = system: EL4 lymphoma; assay: EL4 tumor model in vivo; set-up: species or system C57BL/6 mice; conditions: for survival at day 40 / tumor growth: alone
# Text: FIGS. 4A to 4F show the antitumoral effect of CA-SV40 on EL4 lymphoma in vivo. […] EL4 tumors without any treatment (i.e., PBS) are shown in black, whereas anti-PD-1 treatment alone is in orange and anti-CTLA-4 treatment alone is in purple. […]
# Female C57BL/6 mice (n=10/group) received a SC injection of 5×10^5 EL4 cells at Day 0. Five days later (appearance of palpable tumors˜40-60 mm^3), mice were SC-injected with PBS, CA-SV40, anti-PD-1, or anti-CTLA4, alone or in combination.
# The apoptosis observations obtained in vitro prompted us to explore whether CA-SV40 administration to mice with pre-established tumors can trigger a therapeutic effect. First, CA-SV40 was delivered alone using three different doses (47 μM, 95 μM, and 190 μM) every 48 h following the appearance of palpable tumors (EL4) (FIG. 4A) for a total of 5 injections. […] To further improve this response, we next combined the highest tested CA-SV40 dose (delivered daily instead of every 48 h) with the immune-checkpoint inhibitors (ICIs) anti-PD-1 or anti-CTLA4 (FIG. 4D). […]
# [2] = system: 4T1 breast cancer cells; assay: Annexin V apoptosis assessment by flow cytometry; assay type: cell-based; conditions: 4T-1; 190 μM
# [3] = system: EL4 cells; assay: Cytochrome C cargo release cell death assay; assay type: cell-based
# Experimental: FIGS. 3A and 3B show the ability of CA-SV40 to promote cargo release in the cytoplasm of target cells.
# Cytochrome C is a protein that is normally entrapped in the mitochondria but can be released upon intrinsic signaling known to trigger apoptosis. An experiment was designed where recombinant cytochrome C was added to EL4 cells either alone or in combination with CA-SV40 (47 μM) (FIG. 3A). […] In addition, it may explain the increase in intracellular ROS levels as it can damage endosomes/vesicles responsible for intracellular ROS transport.
# [4] = system: EL4 lymphoma cells; assay: Annexin V apoptosis assessment by flow cytometry; assay type: cell-based; conditions: 190 μM
# Experimental: Annexin-V staining percentage after treatment with different Cholic acid-NLS conjugates (190 μM) is shown relative to live EL4 lymphoma cells (i.e., PBS treated cancer cells) by flow cytometry.
# [5] = system: EL4 lymphoma; assay: PI / Annexin-V co-staining time course; assay type: cell-based
# Experimental: (§1) Percentages of double-positive stained cells is shown, which represents late apoptotic cells.
# (§2) To further uncover the mechanism of cell death, we next investigated whether CA-SV40-triggered apoptosis is strictly occurring in the absence of necrosis. To do so, a co-staining experiment was conducted using propidium iodine (PI) and Annexin-V at different time points. […] Since a large number of anti-cancer molecules can trigger cell death via release or de novo production of reactive oxygen species (ROS), we next stained the EL4 lymphoma cells treated with CA-SV40 at the IC50 dose with MitoSOX™. […] This observation led us to test whether treatment with MitoTempo™ (blocking mitochondria-specific ROS) or N-acetylcysteine (NAC—building block for GSH) rescue from CA-SV40-triggered cell death.
# [6] = system: bone marrow-derived dendritic cells; assay: Annexin V apoptosis assessment on normal cells; assay type: cell-based, mouse; conditions: 190 μM
# Experimental: Mouse bone marrow derived DCs (BMDCs) were generated by flushing the whole marrow from mouse femurs using RPMI™ 1640 supplemented with 10% fetal bovine serum (FBS), 50 U/mL Penicillin-Streptomycin, 2 mM L-glutamine, 10 mM HEPES, 1% MEM Non-essential Amino Acids, 1 mM Sodium Pyruvate, 0.5 mM β-mercaptoethanol. Following red blood cell lysis, cells were then cultured in media supplemented with 50 ng/mL murine recombinant GM-CSF. The media was changed on days 2, 4, 6 and 8. On day 9, the media was replaced to include recombinant murine GM-CSF and LPS from Escherichia coli O111 (1 ng/mL) to stimulate DC maturation. Mature DCs were assessed by flow cytometry for their surface expression of CD3, CD19, NK1.1, CD11c, CD80, CD86, and I-A^b.
# [7] = system: CT-26 colon carcinoma cells; assay: Annexin V apoptosis assessment by flow cytometry; assay type: cell-based; conditions: 190 μM
# [8] = system: macrophages; assay: Annexin V apoptosis assessment on normal cells; assay type: cell-based; conditions: 190 μM
# [9] = system: mesenchymal stem cells; assay: Annexin V apoptosis assessment on normal cells; assay type: cell-based; conditions: 190 μM
# [10] = system: EL4 lymphoma cells; assay: MitoSOX staining for ROS production; assay type: cell-based; conditions: CA-SV40 at the IC50 dose, up to 8 h
# Experimental: as §1, §2
# [11] = system: EL4 lymphoma cells; assay: Rescue from CA-SV40-triggered apoptosis by ROS blockers; assay type: cell-based
# Experimental: as §1, §2
# [12] = system: EL4 T-cell lymphoma; assay: Cell death (kill) curve analysis by flow cytometry; conditions: alone, at any of the concentrations tested
# [13] = highest tested dose (190 μM), every 48 h, 5 injections
compound,measurement,setting,value
CSCC[C@H](NC(=O)[C@H](CS)NC(=O)CC[C@@H](C)[C@H]1CC[C@H]2[C@@H]3[C@H](O)C[C@@H]4C[C@H](O)CC[C@]4(C)[C@H]3C[C@H](O)[C@]12C)C(=O)NCC(=O)N[C@@H](CCCNC(=N)N)C(=O)N[C@H](C(=O)N[C@@H](CCCNC(=N)N)C(=O)N[C@H](C(=O)N[C@@H](CCCCN)C(=O)N[C@H](C(=O)N[C@H](C(=O)N[C@@H](CCCCN)C(=O)N[C@@H](CCCCN)C(=O)N[C@@H](C)C(=O)N[C@@H](C)C(=O)NCC(=O)NCC(=O)O)C(C)C)[C@@H](C)O)[C@@H](C)O)C(C)C [CA-NLS1 RPS17] (Cholyl-CMGRVRTKTVKKAAGG-OH; N-terminus and C-terminus assumed),survival at day 40,[1]; [13],20%
same,tumor growth,[1]; [13],significantly delayed tumor growth
CC[C@H](C)[C@H](NC(=O)[C@H](CCCNC(=N)N)NC(=O)[C@H](CCCCN)NC(=O)[C@H](CCSC)NC(=O)[C@H](CC(C)C)NC(=O)[C@H](Cc1c[nH]cn1)NC(=O)[C@@H](NC(=O)[C@@H](NC(=O)[C@H](Cc1ccc(O)cc1)NC(=O)CNC(=O)[C@H](C)NC(=O)[C@@H](NC(=O)[C@H](CCCCN)NC(=O)[C@H](CC(N)=O)NC(=O)[C@H](CCCNC(=N)N)NC(=O)[C@H](CC(C)C)NC(=O)[C@H](CCCCN)NC(=O)[C@H](CCCCN)NC(=O)[C@H](CO)NC(=O)[C@H](CS)NC(=O)CC[C@@H](C)[C@H]1CC[C@H]2[C@@H]3[C@H](O)C[C@@H]4C[C@H](O)CC[C@]4(C)[C@H]3C[C@H](O)[C@]12C)[C@@H](C)CC)C(C)C)[C@@H](C)O)C(=O)O [CA-NLS3 RPS17] (Cholyl-CSKKLRNKIAGYVTHLMKRI-OH; N-terminus and C-terminus assumed),survival at day 40,[1]; [13],20%
same,tumor growth,[1]; [13],significantly delayed tumor growth
CC(C)[C@H](NC(=O)[C@H](CCCCN)NC(=O)[C@H](CCCNC(=N)N)NC(=O)[C@H](CCCCN)NC(=O)[C@H](CCCCN)NC(=O)[C@H](CCCCN)NC(=O)[C@@H]1CCCN1C(=O)CNC(=O)[C@H](Cc1ccc(O)cc1)NC(=O)CNC(=O)[C@H](CS)NC(=O)CC[C@@H](C)[C@H]1CC[C@H]2[C@@H]3[C@H](O)C[C@@H]4C[C@H](O)CC[C@]4(C)[C@H]3C[C@H](O)[C@]12C)C(=O)NCC(=O)NCC(=O)O [CA-SV40] (Cholyl-CGYGPKKKRKVGG-OH; N-terminus and C-terminus assumed),cell death through apoptosis (Annexin V staining),[2],triggers cell death through apoptosis
same,increase in cell death,[3]; CA-SV40 47 μM combined with cytochrome C,three-fold
same,cell death,[3]; CA-SV40 47 μM in combination with cytochrome C,61%
same,cell death,"[3]; before combination (weak CA-SV40 dose, 47 μM)",19%
same,cell death through apoptosis (Annexin V staining),[4],triggers cell death through apoptosis
same,cytotoxicity compared with CA-GWG-SV40,[4],notably higher
same,time at which apoptosis started occurring post-treatment,[5]; PI/Annexin-V,1 h
same,time to complete death,[5]; PI/Annexin-V,8 h
same,necrotic cells (PI+/Annexin V−),[5]; time course,no necrotic cells
same,apoptosis in normal cells,[6],induce apoptosis
same,cell death through apoptosis (Annexin V staining),[7],triggers cell death through apoptosis
same,apoptosis in normal cells,[8],induce apoptosis
same,apoptosis in normal cells,[9],induce apoptosis
same,ROS production (MitoSOX signal),[10],time-dependent ROS production
same,antitumoral response,"[1]; highest dose daily, combined with anti-PD-1 or anti-CTLA4, vs CA-SV40 alone",significantly enhanced the antitumoral response
same,tumor growth,[1]; highest dose delivered daily,significant delays in tumor growth
same,tumor growth,[1]; [13],significantly delayed tumor growth
"CC(=O)N[C@@H](CS)C(=O)O [NAC, N-acetylcysteine]",rescue from CA-SV40-triggered apoptosis,[11]; CA-SV40 at IC50 dose,completely blocked apoptosis
same,rescue from CA-SV40-triggered apoptosis,[11]; CA-SV40 at higher doses (IC100),incomplete but significant blockade
"SV40 NLS: NLS from SV-40 large T-antigen (e.g., PKKKRKV), unconjugated negative control",cytotoxic activity,[12],did not exhibit any cytotoxic activity
"cytochrome C: recombinant cytochrome C protein, cargo added to EL4 cells [reference compound]",cell death,[3]; recombinant cytochrome C alone,did not trigger cell death
